Measured values reported in ChEMBL document CHEMBL4130502, “Discovery of thienopyrrolotriazine derivatives to protect mitochondrial function against Aβ-induced neurotoxicity” (Eur J Med Chem, 2017).

How the values were obtained:
[1] = Cytotoxicity against mouse HT22 cells as cell viability at 5 uM after 24 hrs by MTT assay relative to control; assay type: cell-based, HT-22; conditions: read-out: Activity
[2] = target: Translocator protein (Mus musculus) (UniProt P50637); assay: Inhibition of TSPO in mouse HT22 cells assessed as reduction in amyloid beta (1 to 42) (unknown origin) induced mitochondrial permeability transition pore formation by measuring increase in green to red fluorescence ratio at 5 uM pretreated for 10 mins followed by amyloid beta (1 to 42) stimulation and measured at 1 hr interval for 3 hrs by JC-1 dye based fluorescence assay relative to control; assay type: cell-based; parameters: scale not given: the % may be the effect or the level left
Chain of Translocator protein (Mus musculus) (P50637 whole entry, looked up): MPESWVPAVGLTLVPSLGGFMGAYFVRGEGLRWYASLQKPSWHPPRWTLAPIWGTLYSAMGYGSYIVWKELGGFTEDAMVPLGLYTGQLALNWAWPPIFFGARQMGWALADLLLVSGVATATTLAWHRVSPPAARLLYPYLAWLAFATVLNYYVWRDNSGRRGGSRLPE

[3] = target: CYP2C9 (Homo sapiens, UniProt P11712); assay: Inhibition of human CYP2C9 assessed as remaining enzyme activity at 10 uM preincubated for 5 mins followed by Vivid CYP substrate addition measured after 20 mins by fluorescence assay relative to control; assay type: ADME; conditions: probe Vivid CYP substrate, read-out: Activity
Chain of CYP2C9 (P11712 whole entry): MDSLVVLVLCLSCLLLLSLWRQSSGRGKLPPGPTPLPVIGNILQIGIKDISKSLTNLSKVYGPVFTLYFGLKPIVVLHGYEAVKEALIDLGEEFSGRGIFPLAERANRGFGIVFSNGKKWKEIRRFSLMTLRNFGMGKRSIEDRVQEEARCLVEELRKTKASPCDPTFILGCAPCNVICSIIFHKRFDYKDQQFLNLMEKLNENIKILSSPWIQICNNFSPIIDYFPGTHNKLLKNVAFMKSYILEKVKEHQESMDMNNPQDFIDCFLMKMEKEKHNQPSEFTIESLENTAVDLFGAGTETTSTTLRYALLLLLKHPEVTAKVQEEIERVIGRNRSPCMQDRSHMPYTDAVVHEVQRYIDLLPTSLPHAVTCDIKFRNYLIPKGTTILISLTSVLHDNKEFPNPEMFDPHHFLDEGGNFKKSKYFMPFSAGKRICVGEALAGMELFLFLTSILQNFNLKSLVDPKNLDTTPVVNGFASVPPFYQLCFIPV

[4] = target: Translocator protein (Mus musculus) (UniProt P50637); assay: Inhibition of TSPO in mouse HT22 cells assessed as recovery of ATP production at 5 uM preincubated for 10 mins followed by amyloid beta (1 to 42) stimulation and measured after 7 hrs by luciferase based assay relative to control; assay type: cell-based; parameters: scale not given: the % may be the effect or the level left
[5] = target: Translocator protein (Rattus norvegicus, UniProt P16257); assay: Displacement of [3H]PK11195 from TSPO in Sprague-Dawley rat cerebral cortex membranes after 60 mins by liquid scintillation counting analysis; parameters: species or system Membrane
Chain of Translocator protein (Rattus norvegicus, UniProt P16257) (P16257 whole entry, looked up): as the sequence (P50637 whole entry, looked up) above, with P2S, E3Q, V67I, D77E, A110V, L113M, V149M, P168T counted along it

[6] = target: T1, CYP1A2 (Homo sapiens, UniProt P05177); assay: Inhibition of human CYP1A2 assessed as remaining enzyme activity at 10 uM preincubated for 5 mins followed by Vivid CYP substrate addition measured after 20 mins by fluorescence assay relative to control; assay type: ADME; conditions: probe Vivid CYP substrate, read-out: Activity
T1 sequence (P05177 whole entry): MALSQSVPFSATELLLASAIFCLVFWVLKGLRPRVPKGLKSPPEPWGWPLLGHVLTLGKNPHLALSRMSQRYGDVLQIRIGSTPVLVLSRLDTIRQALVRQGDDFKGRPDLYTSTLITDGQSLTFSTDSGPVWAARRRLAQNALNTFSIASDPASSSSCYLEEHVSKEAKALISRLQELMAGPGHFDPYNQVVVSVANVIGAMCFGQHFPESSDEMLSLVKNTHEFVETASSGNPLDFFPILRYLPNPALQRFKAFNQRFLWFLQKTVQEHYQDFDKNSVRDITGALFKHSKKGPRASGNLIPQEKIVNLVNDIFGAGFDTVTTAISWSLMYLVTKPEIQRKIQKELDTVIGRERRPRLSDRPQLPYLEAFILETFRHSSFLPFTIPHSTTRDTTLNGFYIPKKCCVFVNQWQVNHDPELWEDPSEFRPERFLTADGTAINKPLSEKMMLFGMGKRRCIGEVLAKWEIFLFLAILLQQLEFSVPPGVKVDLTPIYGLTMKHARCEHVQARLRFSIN

[7] = target: CYP3A4 (Homo sapiens, UniProt P08684); assay: Inhibition of human CYP3A4 assessed as remaining enzyme activity at 10 uM preincubated for 5 mins followed by Vivid CYP substrate addition measured after 20 mins by fluorescence assay relative to control; assay type: ADME; conditions: probe Vivid CYP substrate, read-out: Activity
Chain of CYP3A4 (P08684 whole entry): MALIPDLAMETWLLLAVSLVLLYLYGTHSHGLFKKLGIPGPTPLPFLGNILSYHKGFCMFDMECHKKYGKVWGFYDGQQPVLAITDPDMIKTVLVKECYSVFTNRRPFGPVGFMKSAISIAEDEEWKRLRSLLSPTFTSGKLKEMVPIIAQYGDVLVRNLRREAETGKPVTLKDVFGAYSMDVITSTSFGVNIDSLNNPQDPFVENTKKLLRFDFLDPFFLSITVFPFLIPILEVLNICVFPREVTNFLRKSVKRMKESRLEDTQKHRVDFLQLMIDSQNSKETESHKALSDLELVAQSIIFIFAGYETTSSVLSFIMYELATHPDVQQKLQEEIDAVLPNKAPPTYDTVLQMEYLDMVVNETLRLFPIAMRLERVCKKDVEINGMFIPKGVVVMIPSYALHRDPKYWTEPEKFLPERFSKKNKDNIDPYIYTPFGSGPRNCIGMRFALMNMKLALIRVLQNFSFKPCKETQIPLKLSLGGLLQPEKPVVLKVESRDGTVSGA

[8] = target: CYP2C19 (Homo sapiens, UniProt P33261); assay: Inhibition of human CYP2C19 assessed as remaining enzyme activity at 10 uM preincubated for 5 mins followed by Vivid CYP substrate addition measured after 20 mins by fluorescence assay relative to control; assay type: ADME; conditions: probe Vivid CYP substrate, read-out: Activity
Chain of CYP2C19 (P33261 whole entry): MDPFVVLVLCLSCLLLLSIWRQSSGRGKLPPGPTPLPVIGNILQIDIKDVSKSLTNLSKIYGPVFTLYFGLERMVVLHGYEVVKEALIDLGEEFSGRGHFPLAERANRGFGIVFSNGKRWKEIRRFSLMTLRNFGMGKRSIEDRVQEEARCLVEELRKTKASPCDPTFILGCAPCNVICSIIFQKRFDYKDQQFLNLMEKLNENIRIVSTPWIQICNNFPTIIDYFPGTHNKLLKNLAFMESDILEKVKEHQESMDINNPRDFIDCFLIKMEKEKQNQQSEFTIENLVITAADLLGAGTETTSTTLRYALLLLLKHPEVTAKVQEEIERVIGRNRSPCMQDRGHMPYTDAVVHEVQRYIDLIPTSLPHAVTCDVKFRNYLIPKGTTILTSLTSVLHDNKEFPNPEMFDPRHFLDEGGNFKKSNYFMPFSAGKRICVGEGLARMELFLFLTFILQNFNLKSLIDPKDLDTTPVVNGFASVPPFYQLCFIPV

[9] = target: CYP2D6 (Homo sapiens, UniProt P10635); assay: Inhibition of human CYP2D6 assessed as remaining enzyme activity at 10 uM preincubated for 5 mins followed by Vivid CYP substrate addition measured after 20 mins by fluorescence assay relative to control; assay type: ADME; conditions: probe Vivid CYP substrate, read-out: Activity
Chain of CYP2D6 (P10635 whole entry): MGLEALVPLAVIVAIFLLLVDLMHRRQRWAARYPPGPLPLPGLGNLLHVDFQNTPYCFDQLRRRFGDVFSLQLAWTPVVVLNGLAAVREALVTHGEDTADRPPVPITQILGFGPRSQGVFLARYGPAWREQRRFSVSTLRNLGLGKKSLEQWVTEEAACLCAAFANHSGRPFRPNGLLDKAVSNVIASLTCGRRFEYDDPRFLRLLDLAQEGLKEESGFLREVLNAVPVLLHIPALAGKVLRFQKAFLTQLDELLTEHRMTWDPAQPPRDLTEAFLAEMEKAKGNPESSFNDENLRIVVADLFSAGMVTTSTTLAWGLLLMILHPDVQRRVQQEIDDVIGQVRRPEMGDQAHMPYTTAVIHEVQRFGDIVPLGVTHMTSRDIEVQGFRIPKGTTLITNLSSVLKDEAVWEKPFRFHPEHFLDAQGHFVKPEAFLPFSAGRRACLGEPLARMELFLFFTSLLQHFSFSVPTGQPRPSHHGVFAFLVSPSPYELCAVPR

[10] = Stability in rat plasma assessed as parent compound remaining at 10 uM after 30 mins by LC-MS/MS analysis; assay type: ADME, cell-free; conditions: read-out: Stability
[11] = Stability in dog liver microsomes assessed as parent compound remaining at 1 uM preincubated for 5 mins followed by NADPH addition measured after 30 mins by LC-MS/MS analysis; assay type: ADME, Canis lupus familiaris, microsome; conditions: read-out: Stability
[12] = Stability in human plasma assessed as parent compound remaining at 10 uM after 120 mins by LC-MS/MS analysis; assay type: ADME, cell-free; conditions: read-out: Stability
[13] = Stability in human liver microsomes assessed as parent compound remaining at 1 uM preincubated for 5 mins followed by NADPH addition measured after 30 mins by LC-MS/MS analysis; assay type: ADME, microsome; conditions: read-out: Stability
[14] = Stability in rat liver microsomes assessed as parent compound remaining at 1 uM preincubated for 5 mins followed by NADPH addition measured after 30 mins by LC-MS/MS analysis; assay type: ADME, microsome; conditions: read-out: Stability
[15] = target: Translocator protein (Homo sapiens, UniProt P30536); assay: Binding affinity to C-terminal DDK-tagged human recombinant full-length TSPO expressed in HEK293 cells by SPR assay
Chain of Translocator protein (Homo sapiens, UniProt P30536) (P30536 whole entry): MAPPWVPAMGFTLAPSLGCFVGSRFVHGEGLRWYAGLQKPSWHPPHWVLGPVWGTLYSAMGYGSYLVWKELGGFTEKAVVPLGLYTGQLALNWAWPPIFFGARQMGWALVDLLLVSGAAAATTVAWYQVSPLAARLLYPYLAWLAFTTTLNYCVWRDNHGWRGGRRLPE

[16] = Stability in rat plasma assessed as parent compound remaining at 10 uM after 120 mins by LC-MS/MS analysis; assay type: ADME, cell-free; conditions: read-out: Stability
[17] = Stability in human plasma assessed as parent compound remaining at 10 uM after 30 mins by LC-MS/MS analysis; assay type: ADME, cell-free; conditions: read-out: Stability
[18] = Stability in mouse liver microsomes assessed as parent compound remaining at 1 uM preincubated for 5 mins followed by NADPH addition measured after 30 mins by LC-MS/MS analysis; assay type: ADME, microsome; conditions: read-out: Stability

Structure (SMILES) | Activity [2] [%] | Activity [4] [%] | viability at 24 h, 5 µM [1] [%] | further results
Cc1nnc(SCC(=O)N(C)c2ccccc2)c2cc3sccc3n12 | 56 | 25 | 99 | activity at 20 min, 10 µM [3]: 124%; IC50 [5]: 55.1 nM; activity at 20 min, 10 µM [6]: 46.8%; activity at 20 min, 10 µM [7]: 41.3%; activity at 20 min, 10 µM [8]: 28.8%; activity at 20 min, 10 µM [9]: 48.8%
CCc1nnc(SCC(=O)Nc2ccc(OC)c(OC)c2)c2cc3sc(C)cc3n12 | 62 | 18 | 91 | activity at 20 min, 10 µM [3]: 50%; IC50 [5]: > 10000 nM; activity at 20 min, 10 µM [6]: 65.5%; activity at 20 min, 10 µM [7]: 44.7%; activity at 20 min, 10 µM [8]: 30.9%; activity at 20 min, 10 µM [9]: 54.2%
CCc1nnc(SCC(=O)N(C)c2ccccc2)c2cc3sccc3n12 | 46 | 8 | 97 | remaining at 0.5 h, 10 µM [10]: 94%; remaining at 0.5 h, 1 µM [11]: 5.1%; remaining at 2 h, 10 µM [12]: 96.8%; remaining at 0.5 h, 1 µM [13]: 5%; remaining at 0.5 h, 1 µM [14]: 6.4%; Kd [15]: 39.6 nM; remaining at 2 h, 10 µM [16]: 72.4%; activity at 20 min, 10 µM [3]: 70.5%; IC50 [5]: 24.8 nM; activity at 20 min, 10 µM [6]: 33.7%; activity at 20 min, 10 µM [7]: 32.2%; activity at 20 min, 10 µM [8]: 16.8%; activity at 20 min, 10 µM [9]: 49.5%; remaining at 0.5 h, 10 µM [17]: > 100%; remaining at 0.5 h, 1 µM [18]: 8.2%
CCN(Cc1ccccc1)C(=O)CSc1nnc(C)n2c1cc1sc(C)cc12 | 66 | 26 | 97 | activity at 20 min, 10 µM [3]: 21.1%; IC50 [5]: 123 nM; activity at 20 min, 10 µM [6]: 70.9%; activity at 20 min, 10 µM [7]: 51.4%; activity at 20 min, 10 µM [8]: 10.2%; activity at 20 min, 10 µM [9]: 38.4%
Cc1cc2c(cc3c(=O)n(CC(=O)N(C)c4ccccc4)nc(C)n32)s1 | 41 | 17 | 100 | 
CCc1nnc(SCC(=O)N2CCN(c3ccccc3)CC2)c2cc3sc(Cl)cc3n12 | 50 | -2 | 99 | 
CCc1nnc(SCC(=O)N2CCN(c3ccccc3)CC2)c2cc3sc(C)cc3n12 | 70 | 41 | 99 | activity at 20 min, 10 µM [3]: 38.8%; IC50 [5]: 2220 nM; activity at 20 min, 10 µM [6]: 40.1%; activity at 20 min, 10 µM [7]: 20.6%; activity at 20 min, 10 µM [8]: 20.3%; activity at 20 min, 10 µM [9]: 81.7%
COc1ccc(NC(=O)Cn2nc(C)n3c(cc4sc(C)cc43)c2=O)cc1OC | 52 | -8 | 97 | 
CCc1nnc(SCC(=O)N(C)c2ccccc2)c2cc3sc(C)cc3n12 | 61 | 44 | 91 | remaining at 0.5 h, 10 µM [10]: 96.6%; remaining at 0.5 h, 1 µM [11]: 9.8%; remaining at 2 h, 10 µM [12]: 93.6%; remaining at 0.5 h, 1 µM [13]: 8.8%; remaining at 0.5 h, 1 µM [14]: 9%; Kd [15]: 61.2 nM; remaining at 2 h, 10 µM [16]: 80.6%; activity at 20 min, 10 µM [3]: 64.8%; IC50 [5]: 39.9 nM; activity at 20 min, 10 µM [6]: 50.7%; activity at 20 min, 10 µM [7]: 64.1%; activity at 20 min, 10 µM [8]: 52.2%; activity at 20 min, 10 µM [9]: 60.4%; remaining at 0.5 h, 10 µM [17]: 99.3%; remaining at 0.5 h, 1 µM [18]: 12.8%
CCc1nnc(SCC(=O)N2CCN(c3ccccc3)CC2)c2cc3sccc3n12 | 53 | -4 | 68 | 
O=S(=O)(c1ccccc1Cl)N1CCCC1c1cccs1 (stereo unspecified) | 67 | -61 | 114 | 
COc1cc(-c2nnc(SCc3c(F)cccc3Cl)o2)cc(OC)c1OC | 65 | -3 | 94 | 
CCc1nnc(SCC(=O)Nc2ccccc2)c2cc3sc(Cl)cc3n12 | 66 | 4 | 95 | 
Cc1cc2c(cc3c(SCC(=O)Nc4ccccc4)nnc(C)n32)s1 | 58 | 19 | 88 | 
Cc1cc2c(cc3c(SCC(=O)N(C)c4ccccc4)nnc(C)n32)s1 | 56 | 33 | 87 | 
CCc1nnc(SCC(=O)N(CC)Cc2ccccc2)c2cc3sc(C)cc3n12 | 67 | 25 | 82 | 
CCc1nn(CC(=O)N2CCN(c3ccccc3)CC2)c(=O)c2cc3sccc3n12 | 56 | 9 | 91 | 
CCc1nn(CC(=O)N(CC)Cc2ccccc2)c(=O)c2cc3sccc3n12 | 57 | -11 | 100 | 

Further lines, with some results ahead:

Activity [2] [%] | Activity [4] [%] | Structure (SMILES) | viability at 24 h, 5 µM [1] [%] | further results
61 | 22 | CCc1nnc(SCC(=O)Nc2ccccc2)c2cc3sc(C)cc3n12 | 92 | activity at 20 min, 10 µM [3]: 95.9%; IC50 [5]: 1670 nM; activity at 20 min, 10 µM [6]: 49.2%; activity at 20 min, 10 µM [7]: 34.1%; activity at 20 min, 10 µM [8]: 44.1%; activity at 20 min, 10 µM [9]: 17%
12 | -3 | CCc1nn(CC(=O)N(C)C)c(=O)c2cc3sccc3n12 | 98 | 
56 | 14 | CCc1nnc(SCC(=O)Nc2ccc(OC)c(OC)c2)c2cc3sccc3n12 | 82 | 
69 | -9 | Cc1cc2c(cc3c(SCC(=O)N4CCN(c5ccccc5)CC4)nnc(C)n32)s1 | 99 | 
59 | 0 | Cc1nnc(SCC(=O)N2CCN(c3ccccc3)CC2)c2cc3sccc3n12 | 98 | 
55 | 0 | COc1ccc(NC(=O)CSc2nnc(C)n3c2cc2sccc23)cc1OC | 99 | 
61 | 22 | CCc1nnc(SCC(=O)N(C)c2ccccc2)c2cc3sc(Cl)cc3n12 | 78 | 
48 | -3 | CCc1nnc(SCC(=O)Nc2ccccc2)c2cc3sccc3n12 | 91 | 
59 | 5 | Cc1nnc(SCC(=O)Nc2ccccc2)c2cc3sccc3n12 | 96 | 
